From patent publication US9346815B2, “5-chloro-2-difluoromethoxyphenyl pyrazolopyrimidine compounds, compositions and methods of use thereof” (Genentech, Inc., priority 2014, dated 2016) come the findings set out here.

The test system of assay [1] is JAK1-dependent STAT6 phosphorylation downstream of IL-13 stimulation in TF-1 human erythroleukemia cells. The assay is described as follows: JAK1 pathway assay in TF-1 cells (IL-13-pSTAT6, MSD). Type of assay: cell-based. As to conditions: Homo sapiens, TF-1, TF-1 cells, read-out: IL13-pSTAT6 EC50_TF-1. The method, boiled down:
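BEAS-2B: complete growth medium, compound 1 hr at 37° C. TF-1: GM-CSF-starved overnight, serum-free OptiMEM, compound 30 min.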

Assay [2] addresses isolated recombinant JAK2 kinase domain (Homo sapiens (Human), UniProt O60674). The assay is described as follows: JAK2 enzyme assay (Caliper LabChip, peptide phosphorylation). Type of assay: biochemical. The settings on record: 25 μM ATP.
The target of assay [3] is isolated recombinant JAK1 kinase domain (Homo sapiens (Human), UniProt P23458). The assay is described as follows: JAK1 enzyme assay (Caliper LabChip, peptide phosphorylation). Type of assay: biochemical. As to conditions: isolated recombinant JAK1 kinase domain, 25 μM ATP.
Chain of isolated recombinant JAK1 kinase domain (P23458 875-1153): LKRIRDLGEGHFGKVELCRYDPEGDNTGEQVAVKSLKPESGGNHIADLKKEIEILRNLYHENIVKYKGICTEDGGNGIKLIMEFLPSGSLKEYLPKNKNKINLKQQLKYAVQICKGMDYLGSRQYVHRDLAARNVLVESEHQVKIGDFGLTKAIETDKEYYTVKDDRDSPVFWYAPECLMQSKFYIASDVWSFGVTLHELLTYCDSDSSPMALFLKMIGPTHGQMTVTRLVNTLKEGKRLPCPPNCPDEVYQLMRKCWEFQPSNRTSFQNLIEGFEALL

Chain of isolated recombinant JAK2 kinase domain (O60674 849-1124): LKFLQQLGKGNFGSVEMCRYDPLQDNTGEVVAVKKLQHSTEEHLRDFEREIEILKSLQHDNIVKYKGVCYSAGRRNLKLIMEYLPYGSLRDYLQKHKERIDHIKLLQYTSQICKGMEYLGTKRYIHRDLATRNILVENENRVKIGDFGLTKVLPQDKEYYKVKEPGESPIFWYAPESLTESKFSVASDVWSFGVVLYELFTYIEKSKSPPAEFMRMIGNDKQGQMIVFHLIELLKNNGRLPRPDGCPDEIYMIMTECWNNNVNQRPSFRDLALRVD

By Ki is commonly meant a dissociation constant, usually derived from enzyme kinetics or from competition with a known ligand. As for `CN(C)C[C@H]1CCCN1C(=O)Cn1cc(NC(=O)c2c(N)nn3cccnc23)c(-c2cc(Cl)ccc2OC(F)F)n1` [Example 78, 2-amino-N-[3-[5-chloro-2-(difluoromethoxy)phenyl]-1-[2-[(2R)-2-[(dimethylamino)methyl]pyrrolidin-1-yl]-2-oxo-ethyl]pyrazol-4-yl]pyrazolo[1,5-a]pyrimidine-3-carboxamide], in assay [1], the EC50 stood at 52.4 nM. The Ki amounted to 1.38 nM in assay [2] and 2.08 nM in assay [3].
As for `CN(Cc1cccc(C(F)(F)F)c1)C1CCN(C(=O)Cn2cc(NC(=O)c3cnn4cccnc34)c(-c3cc(Cl)ccc3OC(F)F)n2)CC1` [Example 128, N-[3-[5-chloro-2-(difluoromethoxy)phenyl]-1-[2-[4-[methyl-[[3-(trifluoromethyl)phenyl]methyl]amino]-1-piperidyl]-2-oxo-ethyl]pyrazol-4-yl]pyrazolo[1,5-a]pyrimidine-3-carboxamide], the EC50 in assay [1] was found to be 42.5 nM. Further, the Ki in assay [2] was found to be 3.09 nM; in assay [3], 1.12 nM.
The like results for `CN(C)CC1(c2ccccc2)CCN(C(=O)Cn2cc(NC(=O)c3cnn4cccnc34)c(-c3cc(Cl)ccc3OC(F)F)n2)CC1` [Example 80, N-[3-[5-chloro-2-(difluoromethoxy)phenyl]-1-[2-[4-[(dimethylamino)methyl]-4-phenyl-1-piperidyl]-2-oxo-ethyl]pyrazol-4-yl]pyrazolo[1,5-a]pyrimidine-3-carboxamide] were, in that order, 4.9 nM, 0.87 nM and 0.43 nM.
The like results for `Nc1nn2cccnc2c1C(=O)Nc1cn(C2CCN(CCCC(=O)N3CCCCC3)CC2)nc1-c1cc(Cl)ccc1OC(F)F` [Example 143, 2-amino-N-[3-[5-chloro-2-(difluoromethoxy)phenyl]-1-[1-[4-oxo-4-(1-piperidyl)butyl]-4-piperidyl]pyrazol-4-yl]pyrazolo[1,5-a]pyrimidine-3-carboxamide] were, in that order, 20.4 nM, 0.18 nM and 0.76 nM.
On to `CN(Cc1ccc(Br)cc1)C1CCN(C(=O)Cn2cc(NC(=O)c3cnn4cccnc34)c(-c3cc(Cl)ccc3OC(F)F)n2)CC1` [Example 119, N-[1-[2-[4-[(4-bromophenyl)methyl-methyl-amino]-1-piperidyl]-2-oxo-ethyl]-3-[5-chloro-2-(difluoromethoxy)phenyl]pyrazol-4-yl]pyrazolo[1,5-a]pyrimidine-3-carboxamide], for which the EC50 in assay [1] came to 20.8 nM. The values for the Ki in assay [2] and in assay [3] were 0.51 nM and 1.21 nM, respectively.
The like results for `CCNC(=O)CCCN1CCC(n2cc(NC(=O)c3cnn4cccnc34)c(-c3cc(Cl)ccc3OC(F)F)n2)CC1` [Example 156, N-[3-[5-chloro-2-(difluoromethoxy)phenyl]-1-[1-[4-(ethylamino)-4-oxo-butyl]-4-piperidyl]pyrazol-4-yl]pyrazolo[1,5-a]pyrimidine-3-carboxamide] were, in that order, 31.8 nM, 0.19 nM and 1.53 nM.
The like results for `N#CC1(CN2C[C@@H]3CN(C(=O)Cn4cc(NC(=O)c5cnn6cccnc56)c(-c5cc(Cl)ccc5OC(F)F)n4)C[C@@H]3C2)CCCCC1` [Example 47, N-[1-[2-[(3aS,6aR)-2-[(1-cyanocyclohexyl)methyl]-1,3,3a,4,6,6a-hexahydropyrrolo[3,4-c]pyrrol-5-yl]-2-oxo-ethyl]-3-[5-chloro-2-(difluoromethoxy)phenyl]pyrazol-4-yl]pyrazolo[1,5-a]pyrimidine-3-carboxamide] were, in that order, 11 nM, 0.54 nM and 0.33 nM.
Regarding `CN(CCCC(N)=O)C1CCN(c2nc(-c3cc(Cl)ccc3OC(F)F)c(NC(=O)c3cnn4cccnc34)s2)CC1` [Example 193, N-[2-[4-[(4-amino-4-oxo-butyl)-methyl-amino]-1-piperidyl]-4-[5-chloro-2-(difluoromethoxy)phenyl]thiazol-5-yl]pyrazolo[1,5-a]pyrimidine-3-carboxamide], in assay [1], the EC50 worked out at 23.5 nM. Besides, the inhibitory constant (Ki) worked out at 1.46 nM in assay [2] and 2.23 nM in assay [3].
